Legend:
[1] = Biodistribution of [111In]In-radiocomplexes in healthy mice; assay type: in vivo
Protocol: We performed a biodistribution study of the four [^111In]In-radiocomplexes in healthy mice to determine the clearance rate from systemic blood circulation and the tissue/organ distribution over time. […] The urinary tract was identified as the main excretory pathway since the highest % I.D./g values were found in the kidneys for all the radiocomplexes, associated to rapid radioactivity excretion both at 15 min and 1 h p.i. […] page 9: from whole animal body. Blood samples were taken by cardiac puncture at sacrifice. […] The animals were kept under […] volume of approximate 390 ± 190 mm3. […] […] carried out on groups of 8 mice (n = 4). […] The animals were weighed and dissected.

in vivo [2] = conditions: male, NodCB17 SCID, mouse, iv, 0.061 nmol, total radioactivity
Excerpt: Searching for a preliminary proof of concept of the intended pre-targeting approach, we synthesized a clickable TCO-containing bombesin antagonist (TCO-PEG4-AR) based on the potent GRPr antagonist AR reported in the literature, as described in the Supplementary Material ([29]). We hypothesized that the antagonist, when bound to the surface of human PC3 cells, would be available for the in vivo click reaction with the Tz-containing radiocomplex. As a control, the biodistribution data of the preformed [^90Y]Y-DOTA-Tz-TCO-PEG4-AR in PC3-xenografts bearing mice at 15 min and 1 h p.i. are available in Supplementary Table 5. For the pre-targeting approach, the tumor-bearing mice were injected with 1 nmol of the clickable bombesin antagonist and, after 4 h, we injected the radiocomplex [^90Y]Y-DOTA-Tz. […] In parallel, pre-targeting experiments based on ex-vivo biodistribution studies were performed in the same way for the congener [^111In]In-DOTA-Tz, and using the same animal model. […]
(§1) from whole animal body. Blood samples were taken by cardiac puncture at sacrifice. Tissue samples of the main organs were then dissected, weighted and counted in a gamma counter (Berthold).
(§2) Biodistribution results were expressed as percentage of the injected dose per gram tissue (%I.D./g) in the form of an average with standard deviation (%ID/g; mean ± standard deviation (SD).
(§3) Biodistribution in PC3 bearing mice
(§4) Male, 5-6 weeks old NodCB17 SCID mice were obtained from Janvier Lab., France. Mice were housed under pathogen-free conditions with food and water ad libitum, and a 12-12 hour light-dark cycle.
(§5) Veterinarian staff and investigators observed the mice daily to ensure animal welfare and determine if human endpoints (e.g., hunched and ruffled appearance, apathy, ulceration, severe weight loss, tumour burden) were reached. The mice were subcutaneously injected in the shoulder with 200 µL bolus containing a suspension of […] freshly harvested human prostatic cell line PC3 in Matrigel™ Basement Membrane Matrix (BD Sciences) under anaesthesia with 2% isoflurane. The animals were kept under pathogen-free condition and experiments were performed 2–3 weeks later when a tumour reached a volume of approximate 390 ± 190 mm3. Animals were allocated into treatment groups using a complete […]
(§6) The examination of physiological distribution for [90Y]Y-DOTA-Tz were carried out on 4 mice (n = 4). For the control bolus, 0.061 nmol, 0.1 mL, 7.5 µCi of [90Y]Y-DOTA-Tz was intravenously injected by tail vein. The examination of physiological distribution for [90Y]Y-DOTA-Tz-TCO-PEG4-AR were carried out on groups of 8 mice (n = 4). For the control bolus, 0.061 nmo l, 0.1 mL, 7.5 µCi of 90Y-DOTA-Tz TCO-PEG4-AR was intravenously injected by tail vein. At appropriate time points (15 min, 1h or 2h after-injection), the animals were euthanized, tissues of interest were dissected, weighted, and […]

in vivo [3] = conditions: male, NodCB17 SCID, mouse, iv, total radioactivity
Excerpt: as §1, §2, §3, §4, §5
as §6, with “and their radioactivity was measured using NaI gamma counter supplied with adapter for the whole-body” for “and”
Biodistribution of 111In-DOTA-Tz-TCO-PEG4-AR was performed by intravenous injection of 100 µL (50 – 75 µCi) of the preparation into mice (n =4) via the tail vein. Immediately after injection, radioactive dosage administered into each animal was measured in a dose calibrator (Capintec CRC25R). For the in vivo click chemistry studies in the same PC3 xenografts (n=3), a bolus of 1 nmol of TCO-PEG4-AR, dissolved in 0.1 mL of saline, was injected in the tail vein, and after 4h the [111In]In-DOTA-Tz (0.1mL, 50 – 75 µCi µCi). After 1 h of administration of the radioactive preparations, the mice groups were sacrificed by cervical dislocation and the radioactivity in the sacrificed animal was measured. The difference between the radioactivity in the injected and the sacrificed animal was assumed to be due to total excretion. The animals were weighed and dissected. Then, tissues of interest were removed, weighed and counted in a γ-counter (Berthold, LB211, Germany).
For all the performed biodistribution studies, selected organs and tissues were assayed for their radioactivity and weighted. The physiological distribution was then calculated and expressed in terms of the percentage of the administrated radioactivity found in each of the selected organs or tissues per gram (%ID/g) in the form of an average with standard deviation (%ID/g; mean ± standard deviation
(1 picture or pasted object on this page, not shown here)

Structure (SMILES): O=C([O-])CN1CCN(CC(=O)[O-])CCN(C(CCC(=O)NCCOCCOCCOCCOCCOCCOCCOCCOCCOCCOCCOCCNC(=O)CCCC(=O)NCc2ccc(-c3nncnn3)cc2)C(=O)[O-])CCN(CC(=O)[O-])CC1.[111In+3] (stereo not shown) [[111In]In-DOTAGA-PEG-Tz]
- Biodistribution: Blood ([1]; 15 min p.i.): 3.7 ± 0.6 % I.D./g
- Biodistribution: Bone ([1]; 15 min p.i.): 0.8 ± 0.2 % I.D./g
- Biodistribution: Heart ([1]; 15 min p.i.): 1.2 ± 0.6 % I.D./g
- Biodistribution: Intestine ([1]; 15 min p.i.): 0.31 ± 0.05 % I.D./g
- Biodistribution: Kidney ([1]; 15 min p.i.): 4.8 ± 0.7 % I.D./g
- Biodistribution: Liver ([1]; 15 min p.i.): 0.8 ± 0.1 % I.D./g
- Biodistribution: Lung ([1]; 15 min p.i.): 1.4 ± 0.2 % I.D./g
- Biodistribution: Muscle ([1]; 15 min p.i.): 0.86 ± 0.07 % I.D./g
- Biodistribution: Pancreas ([1]; 15 min p.i.): 0.53 ± 0.05 % I.D./g
- Biodistribution: Spleen ([1]; 15 min p.i.): 0.6 ± 0.2 % I.D./g
- Biodistribution: Stomach ([1]; 15 min p.i.): 1.0 ± 0.5 % I.D./g
- Excretion ([1]; 15 min p.i.): 62.7 ± 2.6 % I.D.
- Biodistribution: Blood ([1]; 1 h p.i.): 0.7 ± 0.4 % I.D./g
- Biodistribution: Bone ([1]; 1 h p.i.): 0.17 ± 0.09 % I.D./g
- Biodistribution: Heart ([1]; 1 h p.i.): 0.13 ± 0.08 % I.D./g
- Biodistribution: Intestine ([1]; 1 h p.i.): 0.4 ± 0.2 % I.D./g
- Biodistribution: Kidney ([1]; 1 h p.i.): 2.2 ± 0.6 % I.D./g
- Biodistribution: Liver ([1]; 1 h p.i.): 0.3 ± 0.2 % I.D./g
- Biodistribution: Lung ([1]; 1 h p.i.): 0.3 ± 0.2 % I.D./g
- Biodistribution: Muscle ([1]; 1 h p.i.): 0.2 ± 0.1 % I.D./g
- Biodistribution: Pancreas ([1]; 1 h p.i.): 0.12 ± 0.07 % I.D./g
- Biodistribution: Spleen ([1]; 1 h p.i.): 0.11 ± 0.05 % I.D./g
- Biodistribution: Stomach ([1]; 1 h p.i.): 1.1 ± 0.8 % I.D./g
- Excretion ([1]; 1 h p.i.): 87.1 ± 6.9 % I.D.

Structure (SMILES): CC(C)C[C@H](NC(=O)C[C@H](O)[C@H](CC(C)C)NC(=O)[C@H](Cc1c[nH]cn1)NC(=O)CNC(=O)[C@@H](NC(=O)[C@H](C)NC(=O)[C@H](Cc1c[nH]c2ccccc12)NC(=O)[C@H](CCC(N)=O)NC(=O)[C@@H](Cc1ccccc1)NC(=O)CCOCCOCCOCCOCCNC(=O)OC1CCCC2=CNN=C(c3ccc(CNC(=O)CN4CCN(CC(=O)O)CCN(CC(=O)O)CCN(CC(=O)O)CC4)cc3)C2CC1)C(C)C)C(N)=O (stereo partly shown) [[90Y]Y-DOTA-Tz-TCO-PEG4-AR, metal not drawn]
- radiochemical purity after incubation in HS (human serum, 37 °C, 6 days, ITLC (citrate buffer pH 5.5, 0.1 M)): above 99%
- stability of the preparation after radiolabelling (room temperature, HPLC): stable up to 24 hours
- tissue uptake at 0.25 h (in vivo [2]; blood): 14.9 ± 3.89 %ID/g
- tissue uptake at 1 h (in vivo [2]; blood): 2.65 ± 0.65 %ID/g
- tissue uptake at 0.25 h (in vivo [2]; bone): 3.15 ± 1.87 %ID/g
- tissue uptake at 1 h (in vivo [2]; bone): 0.7 ± 0.29 %ID/g
- tissue uptake at 0.25 h (in vivo [2]; heart): 3.55 ± 0.62 %ID/g
- tissue uptake at 1 h (in vivo [2]; heart): 0.61 ± 0.27 %ID/g
- tissue uptake at 0.25 h (in vivo [2]; kidneys): 20.5 ± 7.97 %ID/g
- tissue uptake at 1 h (in vivo [2]; kidneys): 2.94 ± 0.44 %ID/g
- tissue uptake at 0.25 h (in vivo [2]; large intestine): 3.98 ± 0.68 %ID/g
- tissue uptake at 1 h (in vivo [2]; large intestine): 0.67 ± 0.19 %ID/g
- tissue uptake at 0.25 h (in vivo [2]; liver): 7.35 ± 3.27 %ID/g
- tissue uptake at 1 h (in vivo [2]; liver): 0.82 ± 0.1 %ID/g
- tissue uptake at 0.25 h (in vivo [2]; lung): 7.48 ± 1.92 %ID/g
- tissue uptake at 1 h (in vivo [2]; lung): 1.57 ± 0.63 %ID/g
- tissue uptake at 0.25 h (in vivo [2]; muscle): 2.36 ± 0.33 %ID/g
- tissue uptake at 1 h (in vivo [2]; muscle): 0.41 ± 0.12 %ID/g
- tissue uptake at 0.25 h (in vivo [2]; pancreas): 32 ± 3.86 %ID/g
- tissue uptake at 1 h (in vivo [2]; pancreas): 14 ± 1.99 %ID/g
- tissue uptake at 0.25 h (in vivo [2]; prostate): 26.3 ± 18 %ID/g
- tissue uptake at 1 h (in vivo [2]; prostate): 3.48 ± 3.63 %ID/g
- tissue uptake at 0.25 h (in vivo [2]; salivary gland): 3.69 ± 1.39 %ID/g
- tissue uptake at 1 h (in vivo [2]; salivary gland): 0.6 ± 0.18 %ID/g
- tissue uptake at 0.25 h (in vivo [2]; small intestine): 2.74 ± 0.28 %ID/g
- tissue uptake at 1 h (in vivo [2]; small intestine): 0.99 ± 0.32 %ID/g
- tissue uptake at 0.25 h (in vivo [2]; spleen): 4.03 ± 2.21 %ID/g
- tissue uptake at 1 h (in vivo [2]; spleen): 1.08 ± 0.39 %ID/g
- tissue uptake at 0.25 h (in vivo [2]; stomach): 4.72 ± 0.38 %ID/g
- tissue uptake at 1 h (in vivo [2]; stomach): 1.95 ± 0.39 %ID/g
- tissue uptake at 0.25 h (in vivo [2]; thyroid): 6.57 ± 3.95 %ID/g
- tissue uptake at 1 h (in vivo [2]; thyroid): 0.99 ± 0.5 %ID/g
- tissue uptake at 0.25 h (in vivo [2]; tumour): 6.32 ± 1.28 %ID/g
- tissue uptake at 1 h (in vivo [2]; tumour): 2.26 ± 0.93 %ID/g

Structure (SMILES): CC(C)C[C@H](NC(=O)C[C@H](O)[C@H](CC(C)C)NC(=O)[C@H](Cc1c[nH]cn1)NC(=O)CNC(=O)[C@@H](NC(=O)[C@H](C)NC(=O)[C@H](Cc1c[nH]c2ccccc12)NC(=O)[C@H](CCC(N)=O)NC(=O)[C@@H](Cc1ccccc1)NC(=O)CCOCCOCCOCCOCCNC(=O)OC1CCCC2=CNN=C(c3ccc(CNC(=O)CN4CCN(CC(=O)O)CCN(CC(=O)O)CCN(CC(=O)O)CC4)cc3)C2CC1)C(C)C)C(N)=O (stereo partly shown) [[111In]In-DOTA-Tz-TCO-PEG4-AR, metal not drawn]
- stability in CCM (cell culture media, 37 °C, up to 24 hours): excellent stabilities in CCM, with no degradation issues
- tissue uptake at 1 h (in vivo [3]; blood): 1.2 ± 0.4 %ID/g
- tissue uptake at 1 h (in vivo [3]; bone): 0.5 ± 0.1 %ID/g
- tissue uptake at 1 h (in vivo [3]; heart): 0.5 ± 0.3 %ID/g
- tissue uptake at 1 h (in vivo [3]; intestine): 1.09 ± 0.08 %ID/g
- tissue uptake at 1 h (in vivo [3]; kidney): 3.7 ± 1.1 %ID/g
- tissue uptake at 1 h (in vivo [3]; liver): 0.74 ± 0.06 %ID/g
- tissue uptake at 1 h (in vivo [3]; lung): 0.7 ± 0.2 %ID/g
- tissue uptake at 1 h (in vivo [3]; muscle): 0.3 ± 0.11 %ID/g
- tissue uptake at 1 h (in vivo [3]; spleen): 0.4 ± 0.1 %ID/g
- tissue uptake at 1 h (in vivo [3]; stomach): 0.9 ± 0.2 %ID/g
- tissue uptake at 1 h (in vivo [3]; tumour): 2.5 ± 0.7 %ID/g

— paper PMC8225959, “Clickable Radiocomplexes With Trivalent Radiometals for Cancer Theranostics: In vitro and in vivo Studies” (Frontiers in Medicine, 2021)
